Source: BindingDB's records for doi:10.1021/jm000991r (University of Bologna, 2001)

Each compound was assayed against Cholinesterase (Homo sapiens, UniProt P06276) (assay: Inhibitory activity against butyrylcholinesterase (BChE) in human […]).
Chain of Cholinesterase (P06276 whole entry): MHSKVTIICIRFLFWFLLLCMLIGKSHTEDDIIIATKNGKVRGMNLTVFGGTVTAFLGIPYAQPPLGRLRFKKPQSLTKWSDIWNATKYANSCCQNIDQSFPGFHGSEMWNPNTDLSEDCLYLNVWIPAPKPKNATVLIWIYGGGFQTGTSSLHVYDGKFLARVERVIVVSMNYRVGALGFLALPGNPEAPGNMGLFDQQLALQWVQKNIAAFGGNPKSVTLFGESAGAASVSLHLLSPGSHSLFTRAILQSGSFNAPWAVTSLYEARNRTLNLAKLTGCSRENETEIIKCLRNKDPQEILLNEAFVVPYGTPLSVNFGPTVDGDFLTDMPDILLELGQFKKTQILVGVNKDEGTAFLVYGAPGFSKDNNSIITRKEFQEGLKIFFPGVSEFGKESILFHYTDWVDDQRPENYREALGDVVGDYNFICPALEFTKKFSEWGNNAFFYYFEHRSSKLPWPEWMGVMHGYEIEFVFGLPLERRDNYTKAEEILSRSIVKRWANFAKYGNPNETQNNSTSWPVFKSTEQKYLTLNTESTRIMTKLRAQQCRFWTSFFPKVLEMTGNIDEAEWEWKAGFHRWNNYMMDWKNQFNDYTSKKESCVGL

Compound | IC50 [µM]
CNC(=O)Oc1ccc2c(c1)[C@@H]1[C@@H](CCN1C)CO2 | 10.2
CNC(=O)Oc1ccc2c(c1)OC[C@@H]1CC[N+](C)(C)[C@H]21 | 2.95
CNC(=O)Oc1ccc2c(c1)OC[C@@H]1CCN(C)[C@H]21 [(3aR,9bS)-1-methyl-1,2,3,3a,4,9b-hexahydrochromeno[4,3-b]pyrrol-7-yl methylcarbamate] | 3.55
CN1CC[C@H]2COc3c(O)cccc3[C@H]21 | 794
CNC(=O)Oc1cccc2c1OC[C@@H]1CCN(C)[C@H]21 [(2S,6R)-3-methyl-8-oxa-3-azatricyclo[7.4.0.0^{2,6}]trideca-1(13),9,11-trien-10-yl N-methylcarbamate] | 0.054
O=C(CCCCCCC(=O)NCCCCCCN1CC[C@H]2COc3ccccc3[C@H]21)NCCCCCCN1CC[C@H]2COc3ccccc3[C@H]21 | 0.912
